# Source: patent US20250172566A1, “SACCHARIDE SENSING SYSTEMS” (CARBOMETRICS LIMITED, priority 2022, published 2025)
# Assays:
# [1] = Affinity electrochemistry - cyclic voltammetry glucose responsive assay (10 mM PBS, pH 7.4, 298 K); settings: for Applied potential / Current response: FIM 0.5 mM, reduction process
# Method: Affinity electrochemistry measurements were made using a Metrohm Autolab PGSTAT101 potentiostat with a BIDSC-FET interface and screen-printed electrodes DRP-200BT. Data collection and analysis were performed using Nova software by Metrohm Autolab. Further analysis and processing were performed in Microsoft Excel. Measurements obtained at 298 K and at pH 7.4 unless otherwise stated.
# Separate samples containing a mixture of GBM, FIM and D-glucose at various concentrations in 10 mM PBS were prepared. 50 μL of each sample was pipetted onto the surface of the screen-printed electrode and the cyclic voltammogram acquired using the CV staircase protocol within the Nova software, using the following settings: Start potential at −0.4 V, upper vertex potential at 0.6 V, lower vertex potential at −0.4 V, stop potential at −0.39756 V, number of scans=3, scan rate at 0.1 V/s and Step at 0.00244 V. The data for each voltammogram was exported into Microsoft excel, processed and compared to give the glucose responsive electrochemical results.
# Changes in applied potential and current response were monitored using the reduction process observed during the cyclic voltammogram. Measurements obtained at 298 K and pH 7.4 in 10 mM PBS medium.
# [2] = Fluorescent hydrogel phase glucose responsive assay (10 mM PBS, pH 7.4, 310 K)
# [3] = Fluorescent solution phase glucose responsive assay (pH 7.4, 298 K)
# Method: Fluorescence spectroscopy was performed on either a HORIBA Duetta or BMG Labtech CLARIOstar plus plate reader. Emission spectra were obtained using the appropriate excitation wavelength and at a temperature of either 298 or 310 K and at pH 7.4 unless otherwise stated. Data collection and analysis were performed using EzSpec software by HORIBA or CLARIOstar MARS software by BMG Labtech. Further analysis and processing were performed in Microsoft Excel.
# A solution of GBM and FIM at the required concentrations were created in the appropriate media. The emission spectrum of the assay was then acquired by exciting at the designated excitation wavelength to obtain the baseline emission intensity for the assay. Aliquots of 2 M D-glucose (in the same media) were then added to give the required final glucose concentrations (e.g. 15 μL of 2 M D-glucose in 3 mL gives a final D-glucose concentration of 10 mM) and the assay allowed to reach equilibration. The emission spectra were collected after each addition of D-glucose and compared to the original baseline emission, monitoring at the typical emission maximum (Emmax), and the percentage increase or decrease recorded. Emission spectra acquired on either a Horiba Duetta fluorometer or Clariostar plus plate reader.
# The glucose responsive fluorescence emission for different combinations of glucose binding molecules (GBM) and fluorescent inhibitor molecules (FIM) at various concentrations and in various media was tested as described above. All results obtained at pH 7.4 and 298 K unless otherwise stated.
# All results obtained at pH 7.4 and 298 K unless otherwise stated.
# Table 4 provides the composition of the assay media used as the code assigned to each media as used in Tables 1 to 3.
# [4] = 20 mM D-glucose, GBM39 50 uM, FIM 2 uM, Ex 470/Emmax 530 nm, hydrogel D (azido PEG star polymer)
# [5] = 50 mM D-glucose, GBM39 50 uM, FIM 2 uM, Ex 470/Emmax 530 nm, hydrogel D (azido PEG star polymer)
# [6] = 60 mM D-glucose, GBM39 50 uM, FIM 2 uM, Ex 470/Emmax 530 nm, hydrogel D (azido PEG star polymer)
# [7] = 80 mM D-glucose, GBM39 50 uM, FIM 2 uM, Ex 470/Emmax 530 nm, hydrogel D (azido PEG star polymer)
# [8] = 100 mM D-glucose, GBM39 50 uM, FIM 2 uM, Ex 470/Emmax 530 nm, hydrogel D (azido PEG star polymer)
smiles,measurement,setting,value
C#CCCC(=O)NCCCC[C@H](NC(=O)[c-]1cccc1)C(=O)NCCOCCOCCOCCn1cc(-c2ccc(CCO[C@@H]3O[C@H](CO)[C@@H](O)[C@H](O)[C@H]3O)cc2)nn1.[Fe+2].c1cc[cH-]c1 [FIM38],Applied potential,"[1]; 0 mM D-glucose, GBM 0 mM",0.327 V
same,Current response,"[1]; 0 mM D-glucose, GBM 0 mM",−4.25 ×10^−6 A
same,Applied potential,"[1]; 0 mM D-glucose, GBM15 1 mM",0.280 V
same,Current response,"[1]; 0 mM D-glucose, GBM15 1 mM",−3.1 ×10^−6 A
same,Applied potential,"[1]; 1 mM D-glucose, GBM15 1 mM",0.285 V
same,Current response,"[1]; 1 mM D-glucose, GBM15 1 mM",−3.75 ×10^−6 A
same,Applied potential,"[1]; 2 mM D-glucose, GBM15 1 mM",0.300 V
same,Current response,"[1]; 2 mM D-glucose, GBM15 1 mM",−4.25 ×10^−6 A
same,Applied potential,"[1]; 3 mM D-glucose, GBM15 1 mM",0.306 V
same,Current response,"[1]; 3 mM D-glucose, GBM15 1 mM",−4.4 ×10^−6 A
same,Applied potential,"[1]; 4 mM D-glucose, GBM15 1 mM",0.310 V
same,Current response,"[1]; 4 mM D-glucose, GBM15 1 mM",−4.5 ×10^−6 A
same,Applied potential,"[1]; 5 mM D-glucose, GBM15 1 mM",0.310 V
same,Current response,"[1]; 5 mM D-glucose, GBM15 1 mM",−4.5 ×10^−6 A
same,Glucose responsive cyclic voltammetry (FIG. 10),"[1]; GBM15 1 mM and FIM38 0.5 mM in 10 mM PBS, addition of D-glucose",shows a shift in both applied potential (V) and current response (A)
O=C(CNC(=O)[C@H](Cc1cn(CCOCCOCCOCCOc2ccc(CCO[C@@H]3O[C@H](CO)[C@@H](O)[C@H](O)[C@H]3O)cc2)nn1)NC(=O)OC[C@@H]1[C@@H]2CCC#CCC[C@@H]21)Nc1ccc2c(c1)C(=O)OC21c2ccc(O)cc2Oc2cc(O)ccc21 [FIM17],Change in Emmax for FIM at a particular D-glucose concentration,"[2]; 20 mM D-glucose, GBM30 100 uM, FIM 10 uM, Ex 480/Emmax 520 nm, hydrogel H (amino azide dextran/PEG)",120%
same,Change in Emmax for FIM at a particular D-glucose concentration,[2]; [4],70%
same,Change in Emmax for FIM at a particular D-glucose concentration,[2]; [5],175%
same,Change in Emmax for FIM at a particular D-glucose concentration,[2]; [6],215%
same,Change in Emmax for FIM at a particular D-glucose concentration,[2]; [7],295%
same,Change in Emmax for FIM at a particular D-glucose concentration,[2]; [8],380%
C[N+](C)(C)[C@@H](CCCCn1cc(C[C@H](NC(=O)OC[C@@H]2[C@@H]3CCC#CCC[C@@H]32)C(=O)NCCOCCOCCn2cc(CNC(=O)c3ccc4c(c3)C(=O)OC43c4ccc(O)cc4Oc4cc(O)ccc43)nn2)nn1)C(=O)NCC(CO[C@@H]1O[C@H](CO)[C@@H](O)[C@H](O)[C@H]1O)c1ccccc1.O=CO (some centres unmarked) [FIM47],Change in Emmax for FIM at a particular D-glucose concentration,[2]; [4],40%
same,Change in Emmax for FIM at a particular D-glucose concentration,[2]; [5],100%
same,Change in Emmax for FIM at a particular D-glucose concentration,[2]; [6],120%
same,Change in Emmax for FIM at a particular D-glucose concentration,[2]; [7],160%
same,Change in Emmax for FIM at a particular D-glucose concentration,[2]; [8],190%
same,Change in Emmax for FIM at a particular D-glucose concentration,"[3]; 5 mM D-glucose, GBM15 50 μM, FIM 5 μM, medium B, Ex 470 nm, Emmax 520 nm",130%
same,Change in Emmax for FIM at a particular D-glucose concentration,"[3]; 5 mM D-glucose, GBM40 20 uM, FIM 5 uM, Ex 470/Emmax 520 nm, medium B (10 mM PBS)",265%
same,Change in Emmax for FIM at a particular D-glucose concentration,"[3]; 10 mM D-glucose, GBM15 50 μM, FIM 5 μM, medium B, Ex 470 nm, Emmax 520 nm",190%
same,Change in Emmax for FIM at a particular D-glucose concentration,"[3]; 10 mM D-glucose, GBM40 20 uM, FIM 5 uM, Ex 470/Emmax 520 nm, medium B (10 mM PBS)",410%
same,Change in Emmax for FIM at a particular D-glucose concentration,"[3]; 20 mM D-glucose, GBM15 50 μM, FIM 5 μM, medium B, Ex 470 nm, Emmax 520 nm",260%
same,Change in Emmax for FIM at a particular D-glucose concentration,"[3]; 20 mM D-glucose, GBM40 20 uM, FIM 5 uM, Ex 470/Emmax 520 nm, medium B (10 mM PBS)",555%
same,Change in Emmax for FIM at a particular D-glucose concentration,"[3]; 40 mM D-glucose, GBM15 50 μM, FIM 5 μM, medium B, Ex 470 nm, Emmax 520 nm",310%
same,Change in Emmax for FIM at a particular D-glucose concentration,"[3]; 40 mM D-glucose, GBM40 20 uM, FIM 5 uM, Ex 470/Emmax 520 nm, medium B (10 mM PBS)",710%
same,Change in Emmax for FIM at a particular D-glucose concentration,"[3]; 60 mM D-glucose, GBM15 50 μM, FIM 5 μM, medium B, Ex 470 nm, Emmax 520 nm",340%
same,Change in Emmax for FIM at a particular D-glucose concentration,"[3]; 80 mM D-glucose, GBM15 50 μM, FIM 5 μM, medium B, Ex 470 nm, Emmax 520 nm",350%
same,Change in Emmax for FIM at a particular D-glucose concentration,"[3]; 80 mM D-glucose, GBM40 20 uM, FIM 5 uM, Ex 470/Emmax 520 nm, medium B (10 mM PBS)",860%
C#CCCC(=O)N[C@@H](Cc1cn(CCOCCOCCOCCOc2ccc(CCO[C@@H]3O[C@H](CO)[C@@H](O)[C@H](O)[C@H]3O)cc2)nn1)C(=O)NCC(=O)Nc1ccc2c(c1)C(=O)OC21c2ccc(O)cc2Oc2cc(O)ccc21 [FIM1],Change in Emmax for FIM at a particular D-glucose concentration,"[2]; 20 mM D-glucose, GBM1 10 uM, FIM 1 uM, Ex 470/Emmax 530 nm, hydrogel D (azido PEG star polymer)",10%
same,Change in Emmax for FIM at a particular D-glucose concentration,"[2]; 50 mM D-glucose, GBM1 10 uM, FIM 1 uM, Ex 470/Emmax 530 nm, hydrogel D (azido PEG star polymer)",20%
same,Reversibility of emission on cycling (FIG. 5),"[2]; hydrogel D with GBM1 50 μM and FIM1 5 μM pre-incorporated, cycling 10 mM PBS / 20 mM D-glucose, 310 K, pH 7.4",shows reversibility of hydrogel
C#CCN(C)c1ccc2nc3ccc(N(C)Cc4cn(CC(CO[C@H]5O[C@@H](CO)[C@H](O)[C@@H](O)[C@@H]5O)c5ccccc5)nn4)cc3[s+]c2c1 (some centres unmarked) [FIM52],Applied potential,"[1]; 1 mM D-glucose, GBM15 1 mM",−0.287 V
same,Current response,"[1]; 1 mM D-glucose, GBM15 1 mM",−9.11 ×10^−6 A
same,Applied potential,"[1]; 2 mM D-glucose, GBM15 1 mM",−0.258 V
same,Current response,"[1]; 2 mM D-glucose, GBM15 1 mM",−9.52 ×10^−6 A
same,Applied potential,"[1]; 10 mM D-glucose, GBM15 1 mM",−0.239 V
same,Current response,"[1]; 10 mM D-glucose, GBM15 1 mM",−10.0 ×10^−6 A
same,Applied potential,"[1]; 20 mM D-glucose, GBM15 1 mM",−0.231 V
same,Current response,"[1]; 20 mM D-glucose, GBM15 1 mM",−11.1 ×10^−6 A
same,Applied potential,"[1]; 50 mM D-glucose, GBM15 1 mM",−0.231 V
same,Current response,"[1]; 50 mM D-glucose, GBM15 1 mM",−11.4 ×10^−6 A
